For one molecule, Ki results are on record in article PMC4560413, “Ethyl Pyruvate Emerges as a Safe and Fast Acting Agent against Trypanosoma brucei by Targeting Pyruvate Kinase Activity” (PLoS ONE, 2015).

The target of the assay is T1, pyruvate kinase (PK-1 from rabbit muscle) (Oryctolagus cuniculus, UniProt P11974).
T1 construct: gene PKM; purified PK-1 from rabbit muscle
Nature of the assay: enzyme kinetics, ATP production by luminescence (CellTiter-Glo), competitive model fit. In kind it is biochemical. For orientation: In ATP-based viability assays light output follows the ATP content of the culture.

T1 sequence (P11974 2-531): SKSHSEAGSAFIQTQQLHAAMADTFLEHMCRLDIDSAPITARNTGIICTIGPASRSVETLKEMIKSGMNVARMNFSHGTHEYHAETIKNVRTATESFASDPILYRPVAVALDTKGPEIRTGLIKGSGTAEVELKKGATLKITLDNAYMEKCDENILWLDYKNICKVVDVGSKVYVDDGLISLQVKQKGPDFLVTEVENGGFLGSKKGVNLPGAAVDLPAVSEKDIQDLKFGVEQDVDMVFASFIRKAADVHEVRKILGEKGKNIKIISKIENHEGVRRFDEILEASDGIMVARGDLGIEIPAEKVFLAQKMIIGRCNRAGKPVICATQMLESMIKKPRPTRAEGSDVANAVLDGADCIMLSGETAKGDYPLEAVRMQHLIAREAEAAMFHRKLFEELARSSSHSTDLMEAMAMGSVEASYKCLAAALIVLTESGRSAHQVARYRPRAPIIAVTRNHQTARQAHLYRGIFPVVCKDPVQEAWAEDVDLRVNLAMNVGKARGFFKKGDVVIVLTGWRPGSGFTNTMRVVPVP

Molecule `CCOC(=O)C(C)=O` [ethyl pyruvate] had a Ki of 3 ± 0.29 mM.

The term Ki denotes a dissociation constant, usually derived from enzyme kinetics or from competition with a known ligand. Low readings indicate tighter binding, high ones weaker binding.
